From US8440624B2, “Peptide whitening agents and cosmetic compositions comprising the same” (Chanel Parfums Beaute, priority 2007, dated 2013)
Where a SMILES comes first, the peptide text is derived from it. Where no end group is shown, it is not given here. The star is where a group is joined. Palmitoyl = CCCCCCCCCCCCCCCC(=O)*

Assays:
B16 melanoma cells [1] = experiment: Melanocyte intracellular penetration of peptide+FITC; format: cell-based; conditions: 72 hours
Experimental: (§1) B16 melanoma cells were cultured at 37° C. and 5% of CO2 in microplates with 96 wells in the presence of DMEM (Invitrogen, reference 11880028) containing 1 g/l of glucose without phenol red supplemented by 3 g/l of glucose (Sigma, reference G7021), 2 mM of L-glutamine, 50 UI/ml of penicillin, 50 μg/ml of […] (Invitrogen, reference 15070063) and 10% of fetal veal serum (Invitrogen, 10270098). After 24 h, the culture medium is replaced by a DMEM medium containing or not (control) a stable derivative of α-MSH, i.e. NDP-MSH (NLE-4-D-PHE-7-A Melanocytes Stimulating Hormone, Sigma, reference M-8764) and containing or not the peptide (compound 3 of example 1 or its N-palmitoyl derivative) according to the invention. Each peptide was tested with and without lipofectamine, (Invitrogen, reference 1538-100), an agent used to facilitate the peptide penetration. The melanocytes were then incubated for 72 hours at 37° C. and 5% of CO2.
At the end of the incubation period, the medium was eliminated and cells were rinsed with a solution of PBS (phosphate buffer saline). The penetration of each peptide was analyzed by microscopy (In Cell Analyser® 100, GE Healthcare) with the objective ×20 or by Flux Cytometry after unsticking of cells by enzymatic treatment with trypsine (Flux FACSarray, Becton Dickinson).
The following table 1 illustrates the measurement of the penetration of the peptide+FITC (fluoresceine isothiocyanate) in B16 melanocytes at different peptide concentrations (4, 20, 100 and 500 μg/ml).

B16 melanoma cells [2] = experiment: Effect on melanogenesis (melanin, absorption at 405 nm) boosted by NDP-MSH; format: cell-based; conditions: for inhibition of the synthesis of melanine: with NDP-MSH, 96 hours
Experimental: as §1
The protocol used is the same as in example 3. The melanocytes were incubated for 96 hours at 37° C. and 5% of CO2. Kojic acid was used as a positive control.
At the end of the incubation period, the quantity of melanine was evaluated by measuring the absorption at 405 nm for each sample.

[3] = test system: binding of AP-2 to the dileucine-based sorting signal containing tyrosinase; experiment: BIAcore competition: binding of AP-2 to tyrosinase tail peptide; set-up: species or system human; conditions: 200 nM adaptor, 10-1000 fold molar excess of peptide; FIG. 3
Experimental: (§2) Human tyrosinase also contains tyrosine residues in its cytoplasmic tail sequence, however they are not relevant with respect to adaptor binding. Instead, the tail contains a dileucine-based sorting signal that is bound by adaptors such as AP-2 and AP-3.
(§3) Binding between adaptors and the tyrosinase tail peptide was recorded in real-time using a BIAcore 3000 biosensor (GEHealthcare) based on surface plasmon resonance. The tyrosinase tail peptide (sequence: -[…]) (SEQ ID NO: 6) was immobilized on the surface of a CM5 sensor surface using thiol coupling and resulting in the immobilization of ≦300 RU of peptide. In brief, the CM5 surface was activated with EDC/NHS for 2 min at a flow-rate of 10 μl/min, followed by modification with PDEA for another 2 min. Subsequently, peptide was injected at a flow-rate of 5 μl/min for 1 min at a concentration of 5 μg/ml in 10 mM sodium acetate pH 4.5. The flow-rate was then adjusted to 20 μl/min and remaining active groups were blocked by injection of 50 mM cysteine, 1M NaCl. […]
(§4) For competition experiments, 200 nM adaptors were incubated with a 10-1000 fold molar excess of one of the 5 compound peptides for 10 min prior to injection. For comparison of adaptor binding to the immobilized tyrosinase tail, the RU values at the end of the injection (association period) and after the dissociation period were evaluated. […]

[4] = test system: binding of AP-3 to the dileucine-based sorting signal containing tyrosinase; experiment: BIAcore competition: binding of AP-3 to tyrosinase tail peptide; set-up: species or system human; conditions: 200 nM adaptor, 10-1000 fold molar excess of peptide; FIG. 4
Experimental: as §2, §3, §4

[5] = without lipofectamine, 20 μg/ml
[6] = without lipofectamine, 100 μg/ml
[7] = without lipofectamine, 500 μg/ml

penetration of the peptide+FITC in B16 melanocytes (B16 melanoma cells [1]; with lipofectamine, 4 μg/ml) [% control]	penetration of the peptide+FITC in B16 melanocytes (B16 melanoma cells [1]; with lipofectamine, 20 μg/ml) [% control]	penetration of the peptide+FITC in B16 melanocytes (B16 melanoma cells [1]; with lipofectamine, 100 μg/ml) [% control]	penetration of the peptide+FITC in B16 melanocytes (B16 melanoma cells [1]; with lipofectamine, 500 μg/ml) [% control]	penetration of the peptide+FITC in B16 melanocytes (B16 melanoma cells [1]; without lipofectamine, 4 μg/ml)	penetration of the peptide+FITC in B16 melanocytes (B16 melanoma cells [1]; [5]) [% control]	penetration of the peptide+FITC in B16 melanocytes (B16 melanoma cells [1]; [6]) [% control]	penetration of the peptide+FITC in B16 melanocytes (B16 melanoma cells [1]; [7]) [% control]	inhibition of the binding of AP-2 to tyrosinase [3]	inhibition of the binding of AP-3 to tyrosinase [4]	Compound	inhibition of the synthesis of melanine (B16 melanoma cells [2]; without lipofectamine, 0.5 μg/ml)	inhibition of the synthesis of melanine (B16 melanoma cells [2]; without lipofectamine, 1 μg/ml)	inhibition of the synthesis of melanine (B16 melanoma cells [2]; without lipofectamine, 2.5 μg/ml)	inhibition of the synthesis of melanine (B16 melanoma cells [2]; without lipofectamine, 5 μg/ml)	inhibition of the synthesis of melanine (B16 melanoma cells [2]; without lipofectamine, 10 μg/ml)	inhibition of the NDP-MSH induction of the synthesis of melanin (B16 melanoma cells [2]; tested between 36 and 80 μg/ml)	inhibition of the synthesis of melanine (B16 melanoma cells [2]; 6.9 μg/ml)	inhibition of the synthesis of melanine (B16 melanoma cells [2]; 15.6 μg/ml)	inhibition of the synthesis of melanine (B16 melanoma cells [2]; 36 μg/ml)	inhibition of the synthesis of melanine (B16 melanoma cells [2]; 80 μg/ml)
765	1495	1331	7726	276 % control	364	1486	982	–	–	CCCCCCCCCCCCCCCC(=O)N[C@@H](C)C(=O)N[C@@H](CCC(=O)O)C(=O)N[C@@H](CC(=O)O)C(=O)N[C@@H](CCC(=O)O)C(=O)N1CCC[C@H]1C(=O)N[C@@H](CC(C)C)C(=O)N[C@@H](CC(C)C)C(=O)N[C@@H](CCSC)C(=O)N[C@@H](CCC(=O)O)C(=O)O [N-palmitoyl derivative of compound 3] (Palmitoyl-AEDEPLLME-OH; C-terminus assumed)	ns *	9 % of inhibition	10 % of inhibition	14 % of inhibition	20 % of inhibition	–	–	–	–	–
–	–	–	–	–	–	–	–	most active	most active	AEDEPLLVD [Compound 4]	–	–	–	–	–	–	–	–	–	–
–	–	–	–	–	–	–	–	–	–	O=c1cc(CO)occ1O [Kojic acid, reference compound]	–	–	–	–	–	sharply inhibited	−13 % of inhibition	−7 % of inhibition	33 % of inhibition	75 % of inhibition
166	338	1097	4265	ns *	263	533	1640	–	–	AEDEPLLME [Compound 3, AEDEPLLME]	–	–	–	–	–	–	–	–	–	–
